Assay results: US7345065B2, “Methods and compositions for alleviating pain” (Allergan, Inc., priority 2002, dated 2008)

Experiments:
rat α-2B (RNG gene) = target: T1, rat α-2B (RNG gene) (Rattus norvegicus, UniProt P19328); assay: RSAT assay, α-2B receptor; assay type: cell-based; conditions: for EC50: NA = not active (EC50 ≧ 10,000); for Emax: read-out: % efficacy 2B; for fold greater activity at the α-2B receptor than the α-2C receptor: RSAT
T1 construct: expressed in transfected cells; host or cells: NIH-3T3
T1 sequence (P19328 1-453): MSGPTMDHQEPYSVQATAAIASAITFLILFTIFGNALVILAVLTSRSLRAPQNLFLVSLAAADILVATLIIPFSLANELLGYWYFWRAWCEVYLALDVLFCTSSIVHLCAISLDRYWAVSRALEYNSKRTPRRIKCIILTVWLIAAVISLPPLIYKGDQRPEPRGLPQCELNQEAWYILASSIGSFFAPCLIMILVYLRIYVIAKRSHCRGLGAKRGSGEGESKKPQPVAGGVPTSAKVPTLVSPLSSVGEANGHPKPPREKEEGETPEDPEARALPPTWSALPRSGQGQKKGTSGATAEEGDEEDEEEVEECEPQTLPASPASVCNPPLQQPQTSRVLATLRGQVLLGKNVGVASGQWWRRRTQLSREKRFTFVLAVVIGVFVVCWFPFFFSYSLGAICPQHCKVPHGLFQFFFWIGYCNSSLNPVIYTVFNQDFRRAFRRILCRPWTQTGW
Text: Agonist and antagonist activity, including selectivity and specificity, can be characterized using any of a variety of routine assays, including, without limitation, Receptor Selection and Amplification Technology (RSAT) assays (Messier et al., Pharmacol. Toxicol. 76:308-11 (1995); Conklin et al., Nature 363:274-6 (1993)); cyclic AMP assays (Shimizu et al., J. Neurochem. 16:1609-1619 (1969)); and cytosensor microphysiometry assays (Neve et al., J. Biol. Chem. 267:25748-25753 (1992)). Such assays generally are performed using cells that naturally express only a single α-adrenergic receptor subtype, or using transfected cells expressing a single recombinant α-adrenergic receptor subtype. The adrenergic receptor can be a human receptor or homolog thereof having a similar pharmacology. As disclosed herein, RSAT assays were performed using cells transiently transfected with human α-2A (c10 gene); rat α-2B (RNG gene); human α-2C (c4 gene); bovine α-1A; hamster α-1B; and rat α-1D.
The RSAT assay measures receptor-mediated loss of contact inhibition resulting in selective proliferation of receptor-containing cells in a mixed population of confluent cells. The increase in cell number is assessed with an appropriate detectable marker gene such as β-galactosidase, if desired, in a high throughput or ultra high throughput assay format. Receptors that activate the G protein, Gq, elicit the proliferative response. α-adrenergic receptors, which normally couple to Gi, activate the RSAT response when coexpressed with a hybrid Gq protein containing a Gi receptor recognition domain, designated Gq/i5.
As an example, an RSAT assay can be performed essentially as follows. NIH-3T3 cells are plated at a density of 2×10^6 cells in 15 cm dishes and maintained in Dulbecco's modified Eagle's medium supplemented with 10% calf serum. One day later, cells are cotransfected by calcium phosphate precipitation with mammalian expression plasmids encoding p-SV-β-galactosidase (5-10 μg), receptor (1-2 μg) and G protein (1-2 μg). Carrier DNA, for example 40 μg salmon sperm DNA, also can be included to increase transfection efficiency. Fresh media is added on the following day; one to two days later, cells are harvested and frozen in 50 assay aliquots. Transfected cells are thawed, and 100 μl of cells added to 100 μl aliquots of compound to be tested, with various concentrations assayed in triplicate, for example, in 96-well plates. Incubation continues for 72 to 96 hours at 37°. After washing with phosphate-buffered saline, β-galactosidase activity is determined by adding 200 μl of chromogenic substrate (3.5 mM O-nitrophenyl-β-D-galactopyranoside/0.5% NP-40 in phosphate buffered saline), incubating overnight at 30°, and measuring optical density at 420 nm. The absorbancy is a measure of enzyme activity, which depends on cell number and reflects receptor-mediated cell proliferation. The EC50 and maximal effect (efficacy) of each drug at each receptor is determined.

Chung model rats = assay: Chung rat nerve ligation model, tactile allodynia reversal (Von Frey); assay type: in vivo; conditions: for allodynia reversal, single oral dose: Compound 3 30 μg/kg, Compound 11 0.1 mg/kg, Compound 4 0.3 mg/kg; for allodynia reversal: osmotic minipump 0.1 mg/kg/hour for five days; for maintenance of the analgesic effect after minipump removal: osmotic minipump for five days, four week test period; for Peak allodynia reversal (dose): intraperitoneal injection, dose (3-300 μg/kg); for persistence of analgesic effects after treatment: subcutaneous osmotic minipump 0.1 mg/kg/hour, seven days
Description: The Chung rat nerve ligation model is a well accepted model of peripheral neuropathic pain. In the Chung model, partial ligation of left spinal nerves L-5 and L-6 produces a long-lasting hypersensitivity to light touch on the affected left foot. The hypersensitivity is similar to pain experienced by humans with the neuropathic condition of causalgia (Kim and Chung, Pain 50:355-363 (1992)).
Chung rat surgeries of about 20 minutes duration were performed essentially as follows. Male Sprague-Dawley rats weighing 100 to 120 grams were anesthetized with isofluorane. After shaving and preparing the surgical site with betadine, an incision was made from thoracic vertebra XIII down toward the sacrum, and muscle separated from spinal vertebra (left side) at the L4-S2 levels. The L6 vertebra were located, and the transverse process carefully removed with a small rongeur to visually identify the L4-L6 spinal nerves. L5 and L6 spinal nerves were isolated and tightly ligated with 6-0 silk thread; the wound was sutured after complete hemostasis was confirmed. A small amount of antibiotic ointment was applied to the incised area before transferring the animals to a plastic recovery cage under a regulated heat-temperature lamp. Animals were not treated with any topical or local anesthetics post-operatively.
Assessment of pain in Chung model rats was performed by applying a light tactile stimulus (Von Frey hair) to the affected surgical paw as follows. A 50% pain threshold was established by applying the Von Frey hair in an up-and-down manner to the plantar surface of the surgical paw with just enough force to bend them. A positive response was recorded if the paw was withdrawn sharply. The 50% paw withdrawal threshold was determined using the method of Dixon et al., Ann. Rev. Pharmacol. Toxicol. 20:441-462 (1980). The post-drug threshold was compared to the pre-drug threshold, and the precent reversal of tactile sensitivity calculated based on a normal threshold of 15.1 grams. The results were expressed as % allodynia reversal, reflecting the percentage reversal of pain threshold relative to a normal rat (100%).
Chung surgeries were performed, and pain assessed as described above. Drugs administered via osmotic minipump were delivered as follows. ALZET (Cupertino, Calif.) minipumps (Model #1007D) were implanted subcutaneously on the rats' back between the shoulder blades. Pumps were filled with test solution prior to surgery, which was performed with aseptic procedures and sterilized surgical instruments. After anesthetization with isoflorane and midline incision between the shoulder blades through the muscle, a subcutaneous pocket was exposed. The minipump was inserted into the exposed pocket, before stapling the wounds closed and allowing animals to recover under a warming light.
ALZET osmotic minipumps (model 1007D) hold a total volume of 100 μl and delivered drug at the set rat of 0.5 μl per hour the indicated time period. Drugs were administered at the indicated rate, typically 100 μg/hr/kg, dissolved in 50% DMSO, with the concentration of drug in the pump varied depending on animal weight. […]

S=c1[nH]cc(CC2CC=CC2)[nH]1 [Compound 11]
EC50 (rat α-2B (RNG gene)): 42 nM | Emax (rat α-2B (RNG gene)): 80% | allodynia reversal, single oral dose (Chung model rats): 60-90% | allodynia reversal (Chung model rats): about 80% | maintenance of the analgesic effect after minipump removal (Chung model rats): maintained at essentially the same level over the entire four week test period | time by which the analgesic effect was gone (Chung model rats; single oral dose): ≤ 2 h

O=c1[nH]cc(CC2CCc3cc(F)ccc32)[nH]1 (stereo not drawn) [Compound 4]
EC50 (rat α-2B (RNG gene)): 15 nM | fold greater activity at the α-2B receptor than the α-2C receptor (rat α-2B (RNG gene)): more than 10 fold | Emax (rat α-2B (RNG gene)): 100% | allodynia reversal, single oral dose (Chung model rats): 60-80% | Peak allodynia reversal (dose) (Chung model rats): 80% +/− 6.5% | allodynia reversal (Chung model rats): about 80% | maintenance of the analgesic effect after minipump removal (Chung model rats): maintained at essentially the same level over the entire four week test period | oral dose sufficient for an analgesic effect (Chung model rats; single oral dose): 0.03 mg/kg | time by which the analgesic effect was gone (Chung model rats; single oral dose): essentially no pain relief was observed after four hours | allodynia reversal and duration at 1 mg/kg oral (Chung model rats; single oral dose 1 mg/kg, compared with 0.3 mg/kg): the allodynia was reversed to a greater extent, and the pain relief was of longer duration | persistence of analgesic effects after treatment (Chung model rats): continued for over a month after treatment was concluded

O=C1c2ccccc2CCC1Cc1c[nH]c(=S)[nH]1 (racemic) [Compound 3]
EC50 (rat α-2B (RNG gene)): 24 nM | fold greater activity at the α-2B receptor than the α-2C receptor (rat α-2B (RNG gene)): about 100 fold | Emax (rat α-2B (RNG gene)): 90% | allodynia reversal, single oral dose (Chung model rats): 70-100% | Peak allodynia reversal (dose) (Chung model rats): 81% +/− 10% | allodynia reversal (Chung model rats): about 80% | analgesia, agonist given alone (Chung model rats; peripheral (intraperitoneal) administration, Chung rats, Compound 2 100 μg/kg, clonidine 100 μg/kg, Compound 3 1 to 1000 μg/kg): significant analgesia without producing sedation | time by which the analgesic effect was gone (Chung model rats; single oral dose): ≤ 2 h | time to analgesic effect (Chung model rats; single oral dose): less than 20 minutes | persistence of analgesic effects after treatment (Chung model rats): continued for over a month after treatment was concluded
